Active and inactive are the calls of the source. No cut-off for these calls is given here.
Columns and labels:
[1] = target: Histone-lysine N-methyltransferase EZH2 (Mus musculus) (UniProt Q61188); assay: Inhibition of EZH2 in mouse primary cranial mesenchyme ectoderm fibroblast assessed as increase in Sox9 mRNA level by qPCR analysis
[2] = target: Histone-lysine N-methyltransferase EZH2 (Mus musculus) (UniProt Q61188); assay: Inhibition of EZH2 in mouse primary cranial mesenchyme ectoderm fibroblast assessed as reduction in H3K27me3 protein level at 500 to 2000 nM by Western blotting analysis; settings: dose 500-2000 nM
[3] = target: Histone-lysine N-methyltransferase EZH2 (Homo sapiens, UniProt Q15910); assay: Inhibition of EZH2 (unknown origin)
[4] = target: Histone-lysine N-methyltransferase EZH2 (Mus musculus) (UniProt Q61188); assay: Inhibition of EZH2 in mouse primary cranial mesenchyme ectoderm fibroblast assessed as reduction in H3K27me3 protein level at 150 to 2000 nM by Western blotting analysis; settings: dose 150-2000 nM
[5] = target: T1, Histone-lysine N-methyltransferase EZH1 (Homo sapiens, UniProt Q92800); assay: Inhibition of EZH1 (unknown origin)
T1 sequence (Q92800 whole entry): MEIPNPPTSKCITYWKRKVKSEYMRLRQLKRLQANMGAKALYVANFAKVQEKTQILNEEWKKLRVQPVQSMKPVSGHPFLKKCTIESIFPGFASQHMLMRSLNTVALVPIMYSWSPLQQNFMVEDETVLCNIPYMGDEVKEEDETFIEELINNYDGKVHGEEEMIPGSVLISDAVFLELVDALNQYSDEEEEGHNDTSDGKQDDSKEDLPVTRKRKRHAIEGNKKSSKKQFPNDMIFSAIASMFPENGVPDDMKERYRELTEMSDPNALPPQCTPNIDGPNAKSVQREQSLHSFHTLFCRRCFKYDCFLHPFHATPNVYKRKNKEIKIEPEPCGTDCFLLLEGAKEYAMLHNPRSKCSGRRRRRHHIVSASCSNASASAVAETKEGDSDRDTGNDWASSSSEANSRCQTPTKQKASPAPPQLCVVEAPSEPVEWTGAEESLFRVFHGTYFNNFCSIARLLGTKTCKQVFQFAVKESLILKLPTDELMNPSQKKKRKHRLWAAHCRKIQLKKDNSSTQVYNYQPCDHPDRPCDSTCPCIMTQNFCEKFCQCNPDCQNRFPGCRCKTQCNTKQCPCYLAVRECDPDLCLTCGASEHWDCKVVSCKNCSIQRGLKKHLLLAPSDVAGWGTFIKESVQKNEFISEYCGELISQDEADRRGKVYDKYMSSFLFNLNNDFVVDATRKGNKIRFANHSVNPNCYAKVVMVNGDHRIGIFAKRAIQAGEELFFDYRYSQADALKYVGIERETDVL

Histone-lysine N-methyltransferase EZH2 (Mus musculus), sequence (Q61188 whole entry): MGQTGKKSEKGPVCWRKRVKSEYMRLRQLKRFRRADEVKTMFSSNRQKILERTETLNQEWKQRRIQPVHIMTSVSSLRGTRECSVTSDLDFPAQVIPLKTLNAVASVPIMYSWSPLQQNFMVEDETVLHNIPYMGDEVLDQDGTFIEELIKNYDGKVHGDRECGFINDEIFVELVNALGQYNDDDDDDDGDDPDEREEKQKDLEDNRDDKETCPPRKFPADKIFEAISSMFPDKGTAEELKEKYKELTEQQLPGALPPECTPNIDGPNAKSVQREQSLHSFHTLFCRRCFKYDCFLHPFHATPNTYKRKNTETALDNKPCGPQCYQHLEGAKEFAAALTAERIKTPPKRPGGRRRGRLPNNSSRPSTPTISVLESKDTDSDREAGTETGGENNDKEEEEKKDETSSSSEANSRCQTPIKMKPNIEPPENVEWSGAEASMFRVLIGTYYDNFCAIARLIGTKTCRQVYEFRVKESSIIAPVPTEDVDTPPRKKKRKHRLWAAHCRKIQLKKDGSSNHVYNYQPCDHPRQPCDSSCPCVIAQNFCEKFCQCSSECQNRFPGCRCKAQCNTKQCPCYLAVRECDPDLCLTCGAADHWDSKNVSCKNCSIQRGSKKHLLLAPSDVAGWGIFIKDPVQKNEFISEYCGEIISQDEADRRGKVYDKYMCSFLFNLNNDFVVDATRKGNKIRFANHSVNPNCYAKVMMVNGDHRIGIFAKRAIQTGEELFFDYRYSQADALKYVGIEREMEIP
Histone-lysine N-methyltransferase EZH2, sequence (Q15910 whole entry): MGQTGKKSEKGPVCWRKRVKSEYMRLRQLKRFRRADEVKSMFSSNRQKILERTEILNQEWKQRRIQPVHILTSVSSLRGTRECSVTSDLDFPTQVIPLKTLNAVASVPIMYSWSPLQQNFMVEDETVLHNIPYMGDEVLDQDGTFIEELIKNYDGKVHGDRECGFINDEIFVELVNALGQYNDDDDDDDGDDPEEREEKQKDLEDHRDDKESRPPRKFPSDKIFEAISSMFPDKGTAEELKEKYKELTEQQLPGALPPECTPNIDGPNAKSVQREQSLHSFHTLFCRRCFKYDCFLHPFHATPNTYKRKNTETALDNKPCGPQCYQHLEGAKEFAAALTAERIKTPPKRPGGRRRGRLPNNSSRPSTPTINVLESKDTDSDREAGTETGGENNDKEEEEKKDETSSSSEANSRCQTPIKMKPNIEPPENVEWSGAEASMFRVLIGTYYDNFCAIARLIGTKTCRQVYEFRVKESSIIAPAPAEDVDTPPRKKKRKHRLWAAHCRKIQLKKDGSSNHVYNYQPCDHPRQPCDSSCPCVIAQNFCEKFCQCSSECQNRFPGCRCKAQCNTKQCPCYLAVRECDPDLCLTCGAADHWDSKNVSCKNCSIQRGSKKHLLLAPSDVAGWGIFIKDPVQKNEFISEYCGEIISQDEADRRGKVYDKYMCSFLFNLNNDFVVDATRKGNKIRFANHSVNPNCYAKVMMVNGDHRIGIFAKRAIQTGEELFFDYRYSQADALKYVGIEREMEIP

| inhibition [1] | inhibition [2] | IC50 [3] | inhibition [4] | IC50 [5] | Compound |
| --- | --- | --- | --- | --- | --- |
| inactive | Active | < 0.01 µM |  |  | CCCc1cc(C)[nH]c(=O)c1CNC(=O)c1cc(-c2ccc(N3CCN(C(C)C)CC3)nc2)cc2c1cnn2C(C)C |
| inactive |  |  | Active | 0.075 µM | CC[C@H](C)n1cc(C)c2c(C(=O)NCc3c(C)cc(C)[nH]c3=O)cc(-c3ccc(N4CCNCC4)nc3)cc21 [GSK2816126] |

— ChEMBL document CHEMBL5712895, “PRC2 Is Dispensable in Vivo for β-Catenin-Mediated Repression of Chondrogenesis in the Mouse Embryonic Cranial Mesenchyme” (G3 (Bethesda), 2018)
